Like-named read-outs stand apart in the source and are kept apart here. Where a SMILES comes first, the peptide text is derived from it. The star is where a group is joined. Cbz = O=C(OCc1ccccc1)*; CHN2 = [N-]=[N+]=C*; tBu = CC(C)(C)*

In assay [1] the test system is FECV-1683. The assay is described as follows: Growth assay: production of extracellular virus by TCID50, A-72 cells. The note with it: A-72 cells pretreated with 10 μM inhibitor; media collected 9 h post-infection; vs DMSO control. The format is cell-based, feline enteric coronavirus.
Assay [2] deals with serotype I FIPV black strain. Nature of the assay: Infection of AK-D cells by a serotype I FCoV, immunofluorescence. The format is cell-based, Feline infectious peritonitis virus. The note with it: AK-D cells pretreated with 10 uM inhibitor. Here is the method: AK-D cells were pretreated with either 10 uM cathepsin B inhibitor CA074-Me (CatB-I), 10 uM cathepsin L inhibitor Z-FY(tBu)-DMK (CatL-I), or 10 mM NH4Cl, and then infected with virus the serotype I FIPV black strain. Immunofluorescence was performed essentially as described for FIG. 4.
AK-D cells were pretreated with either 10 uM cathepsin B inhibitor CA074-Me (CatB-I), 10 uM cathepsin L inhibitor Z-FY(tBu)-DMK (CatL-I), or 10 mM NH4Cl, and then infected with virus FIPV black strain, a serotype I FIPV. Immunofluorescence was performed essentially as described for FIG. 4.

The test system of assay [3] is influenza virus. The class given is cell-based. The note with it: for influenza virus entry, cathepsin inhibitor treatment: anti-influenza nucleoprotein mAb H19.
Assay [4] deals with FIPV-1146. The assay is described as follows: Growth assay: production of extracellular virus by TCID50, A-72 cells. The class given is cell-based, Feline infectious peritonitis virus. The note with it: A-72 cells pretreated with 10 μM inhibitor; media collected 9 h post-infection; vs DMSO control.
Assay [5] relates to FIPV-1146. The format is cell-based, Feline infectious peritonitis virus. The note with it: for infection by FIPV-1146 (entry), inhibitor pre-incubation: five log dilutions of inhibitor 60 min pre-infection.
Assay [6] has as its system FIPV-1146. Nature of the assay: Infection of primary feline blood monocytes by immunofluorescence. The format is cell-based, Feline infectious peritonitis virus. The note with it: monocytes pretreated with 10 μM inhibitor; 12 h post-infection.
Assay [7] concerns the target cathepsin B (Homo sapiens, UniProt P07858). The note with it: kinact/Ki (k2/Ki); cited from earlier work.
For assay [8], the system named is FIPV-DF2. Nature of the assay: Infection of primary feline blood monocytes by immunofluorescence. The format is cell-based, Feline infectious peritonitis virus. The note with it: monocytes pretreated with 10 μM inhibitor; 12 h post-infection.
The subject of assay [9] is FECV-1683. Nature of the assay: Infection of feline cell lines CRFK, AK-D, Fc2Lu by immunofluorescence. The note with it: Fc2Lu cells, pretreated with 10 uM inhibitor or 10 mM NH4Cl, 6 h post-infection. The class given is cell-based, feline enteric coronavirus.
For assay [10], the system named is FECV-1683. Nature of the assay: Infection (entry) assay by immunofluorescence, A-72 cells. The format is cell-based, feline enteric coronavirus. The note with it: for infection by FECV-1683 (entry), inhibitor pre-incubation: five log dilutions of inhibitor 60 min pre-infection; for infection by FECV-1683 (entry), inhibitor pre-incubation / infection by FECV-1683, inhibitor treatment after entry: fixed 6 h post-infection; for infection by FECV-1683, inhibitor treatment after entry: inhibitor 60 min post-infection.

For assay [11], the target named is T1, cathepsin B (Mus musculus, UniProt P10605).
T1 construct: host or cells: mouse (in vivo)
T1 sequence (P10605 80-333): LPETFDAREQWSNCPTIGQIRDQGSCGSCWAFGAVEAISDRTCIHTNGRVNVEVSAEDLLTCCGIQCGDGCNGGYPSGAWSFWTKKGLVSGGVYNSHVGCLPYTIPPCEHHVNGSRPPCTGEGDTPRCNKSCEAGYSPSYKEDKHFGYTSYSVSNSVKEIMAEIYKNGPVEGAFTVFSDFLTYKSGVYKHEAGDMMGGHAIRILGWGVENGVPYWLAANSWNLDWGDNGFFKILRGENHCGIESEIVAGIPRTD
The note with it: 10 mg/kg; cited from earlier work.

Assay [12] concerns the target cathepsin L (Homo sapiens, UniProt P07711). The note with it: kinact/Ki (k2/Ki); cited from earlier work.
For assay [13], the system named is FIPV-DF2. Nature of the assay: Infection of feline cell lines CRFK, AK-D, Fc2Lu by immunofluorescence. The format is cell-based, Feline infectious peritonitis virus.
Assay [14] deals with FIPV-1146. The description is as above. The format is cell-based, Feline infectious peritonitis virus.
The subject of assay [15] is influenza virus. The format is cell-based. The note with it: A-72 cells pretreated with inhibitor; control virus.
The test system of assay [16] is Sendai virus. The class given is cell-based.
Assay [17] deals with murine coronavirus (A59). The note with it: cited from earlier work.
Assay [18] relates to FIPV. The note with it: cited from earlier work.
Assay [19] relates to human coronaviruses. The note with it: cited from earlier work.
The mark [20] stands for this setting: A-72 cells, fixed 6 h post-infection.
Setting [21] is: CRFK, AK-D, Fc2Lu cells, pretreated with 10 uM inhibitor or 10 mM NH4Cl, 6 h post-infection.
Where [22] appears, read: A-72 cells, post-treatment at the concentrations shown in FIG. 3.
The mark [23] stands for this setting: A-72 cells, pretreatment with 50 nM bafilomycin A1.
Setting [24] is: A-72 cells, 1 h post-infection, concentrations shown in FIG. 3.

Chain of cathepsin L (P07711 114-333, species assumed): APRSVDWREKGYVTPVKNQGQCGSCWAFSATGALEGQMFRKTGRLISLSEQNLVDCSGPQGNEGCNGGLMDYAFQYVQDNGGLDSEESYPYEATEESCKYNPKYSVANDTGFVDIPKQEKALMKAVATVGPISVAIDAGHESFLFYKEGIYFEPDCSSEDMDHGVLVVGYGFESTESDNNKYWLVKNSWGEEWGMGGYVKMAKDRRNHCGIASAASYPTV

Turning to `CCCNC(=O)[C@H]1O[C@@H]1C(=O)N[C@H](C(=O)N1CCC[C@H]1C(=O)OC)[C@@H](C)CC` (relative stereo) [CA074-Me, [L-3-trans-(Propylcarbamoyl)oxirane-2-carbonyl]-L-isoleucyl-L-proline Methyl Ester], the “production of FECV-1683 viral particles (extracellular virus, TCID50)” value (“production of FECV-1683 viral particles” for short) in assay [1] is given as “considerably limited the production”. In assay [2], the “replication of the serotype I FIPV strain” value is “can inhibit replication”. The “influenza virus entry, cathepsin inhibitor treatment” value in [3] (A-72 cells, […]) is “Neither the cathepsin B nor the cathepsin L inhibitor had an effect”. In addition, the “production of FIPV-1146 viral particles (extracellular virus, TCID50)” value (“production of FIPV-1146 viral particles” for short) in assay [4] was “considerably limited the production”. Also, the “infection by FIPV-1146 (entry), inhibitor pre-incubation” value in assay [5] (setting [20]) is recorded as “almost completely blocked infection”. Further, in assay [5] (A-72 cells, inhibitor 60 min post-infection, fixed 6 h post-infection), the “infection by FIPV-1146, inhibitor treatment after entry” value is recorded as “no effect”. Besides, the “inhibition of infection by FIPV-1146 of primary feline blood monocytes” value in assay [6] is on record as 85-95%. Moreover, in [7], the “apparent second order rate constant for cathepsin B” value was 201 M⁻¹ s⁻¹. Moreover, the “inhibition of infection by FIPV-DF2 of primary feline blood monocytes” value in assay [8] was 85-95%. Further, the “infection by FECV-1683 of feline cell lines” value in assay [9] is on record as “almost completely prevented infection”. Moreover, in assay [10] (A-72 cells), the “infection by FECV-1683 (entry), inhibitor pre-incubation” value is “potently blocked infection” and the “infection by FECV-1683, inhibitor treatment after entry” value is on record as “no effect”. The “inhibition of cathepsin B in a mouse” value in assay [11] is given as “inhibit cathepsin B”. The “apparent second order rate constant for cathepsin L” value in assay [12] is 85 M⁻¹ s⁻¹. In addition, the “infection by FIPV-DF2 of feline cell lines” value in [13] (setting [21]) was “almost completely prevented infection”. In addition, the “infection by FIPV-1146 of feline cell lines” value in [14] (setting [21]) is “almost completely prevented infection”.
As to `CC(C)C[C@H](NC(=O)OCc1ccccc1)C(=O)NNC(=O)NNC(=O)[C@H](CC(C)C)NC(=O)[C@H](Cc1ccccc1)NC(=O)OC(C)(C)C` [Boc1, 1-(N-Benzyloxycarbonyl-leucyl)-5-(N-Boc-phenylalanyl-leucyl)carbohydrazide], the “production of FECV-1683 viral particles” value in [1] is listed as “no significant effect”. Also, the “influenza virus entry, cathepsin inhibitor treatment” value in assay [3] (setting [20]) is given as “no effect”. Further, the “production of FIPV-1146 viral particles” value in [4] was “no significant effect”. Moreover, the “infection by FIPV-1146 (entry), inhibitor pre-incubation” value in assay [5] (setting [20]) is given as “no effect”. Besides, in assay [10] (A-72 cells), the “infection by FECV-1683 (entry), inhibitor pre-incubation” value is “no effect”.
On to `CCOC(=O)[C@H]1O[C@@H]1C(=O)N[C@@H](CC(C)C)C(=O)NCCC(C)C` [E-64d, (2S,3S)-trans-Epoxysuccinyl-L-leucylamido-3-methylbutane ethyl ester], for which the “production of FECV-1683 viral particles” value in [1] is reported as “significantly reduced”. In assay [4], the “production of FIPV-1146 viral particles” value is “significantly reduced”. Further, the “effect on influenza virus infection” value in assay [15] is recorded as “no effect”.
As to `Cl.N` [NH4Cl], the influenza virus entry result in [3] is “completely inhibited”. Moreover, in assay [5], the FIPV-1146 entry entry is given as “only partially blocked”; the “FIPV-1146 infection, lysosomotropic agent treatment after entry” value was “minimal effect”; the “FIPV-1146 infectivity, treatment after entry at higher concentrations” value is on record as “significantly reduce infectivity”; the “inhibition of entry of FIPV-1146” value is “approximately 20%”. Also, in assay [9], the “infection by FECV-1683 of feline cell lines” value is “selectively inhibited”. Besides, in assay [10], the “FECV-1683 infection, lysosomotropic agent treatment after entry” value is given as “minimal effect”; the “FECV-1683 infectivity, treatment after entry at higher concentrations” value was “significantly reduce infectivity”; the “entry by FECV-1683” value is reported as “almost completely blocked entry”. Besides, in [13], the “infection by FIPV-DF2 of feline cell lines” value is “only a marginal effect”. Besides, the “infection by FIPV-1146 of feline cell lines” value in assay [14] is “only a marginal effect”. In addition, the Sendai virus entry entry in assay [16] is on record as “no reduction in entry”.
In the case of `CC(C)(C)Oc1ccc(C[C@H](NC(=O)[C@H](Cc2ccccc2)NC(=O)OCc2ccccc2)C(=O)C=[N+]=[N-])cc1` [Z-FY-(tBu)-DMK, Z-Phe-Tyr(t-Bu)-diazomethylketone] (Cbz-Phe-Tyr(tBu)-CHN2), in [1], the “production of FECV-1683 viral particles” value is given as “greatly diminished the propagation”. In [3] (A-72 cells, […]), the “influenza virus entry, cathepsin inhibitor treatment” value was “Neither the cathepsin B nor the cathepsin L inhibitor had an effect”. The “production of FIPV-1146 viral particles” value in assay [4] was “only a negligible effect”. Moreover, in assay [5] (setting [20]), the “infection by FIPV-1146 (entry), inhibitor pre-incubation” value is “no effect on FIPV-1146 entry, except for some limited effect at the highest concentration tested”. Further, in assay [6], the “effect on FIPV-1146 infection of primary feline monocytes (in words)” value was “no significant effect”. The “effect on FIPV-DF2 infection of primary feline monocytes (in words)” value in [8] is recorded as “no significant effect”. Further, the “infection by FECV-1683 of feline cell lines” value in assay [9] was “selectively inhibited”. Moreover, in assay [10] (A-72 cells), the “infection by FECV-1683 (entry), inhibitor pre-incubation” value is on record as “potently blocked infection” and the “infection by FECV-1683, inhibitor treatment after entry” value is given as “no effect”. In addition, the “infection by FIPV-DF2 of feline cell lines” value in [13] (setting [21]) is recorded as “little or no effect”. In addition, in assay [14] (setting [21]), the “infection by FIPV-1146 of feline cell lines” value was “little or no effect”.
In the case of `CO/C1=C\C(C)=C\[C@@H](C)[C@@H](O)[C@@H](C)C/C(C)=C/C=C/[C@H](OC)[C@@H]([C@@H](C)[C@@H](O)[C@H](C)[C@@]2(O)C[C@@H](O)[C@H](C)[C@@H](C(C)C)O2)OC1=O` [bafilomycin A1], the “influenza virus infection, post-treatment” value in assay [3] (setting [22]) is listed as “no effect”. Also, the “entry of influenza virus” value in assay [3] (setting [23]) is on record as “completely blocked entry”. In addition, the “FIPV-1146 infectivity, treatment after entry at higher concentrations” value in assay [5] is “significantly reduce infectivity”. Further, the “FIPV-1146 infection, lysosomotropic agent treatment after entry” value in assay [5] (setting [24]) is “minimal effect”. The “inhibition of entry by FIPV-1146” value in assay [5] (setting [23]) is on record as “approximately 40%”. Further, the “FECV-1683 infectivity, treatment after entry at higher concentrations” value in [10] is “significantly reduce infectivity”. The “FECV-1683 infection, lysosomotropic agent treatment after entry” value in [10] (setting [24]) is “minimal effect”. Besides, in assay [10] (setting [23]), the “entry of FECV-1683” value is given as “completely blocked entry”. Also, in assay [16] (A-72 cells, bafilomycin A1 at the concentrations tested), the Sendai virus entry result is “unaffected”. Also, in [16] (setting [22]), the “Sendai virus infection, post-treatment” value is on record as “no effect”.
As for `CC(=O)N[C@@H](CC(C)C)C(=O)N[C@@H](CC(C)C)C(=O)N[C@H](C=O)CCCNC(=N)N` [leupeptin], the “replication of murine coronavirus A59” value in assay [17] is given as “does not strongly inhibit”. Besides, the “inhibition of FIPV” value in assay [18] is on record as “does not strongly inhibit”. Moreover, the “replication of human coronavirus” value in [19] is listed as “inhibits”.

B1: cystatin C: a potent inhibitor of cathepsin B (protein, UniProt P01034 27-146, looked up)
Cystatin-C: SSPGKPPRLVGGPMDASVEEEGVRRALDFAVGEYNKASNDMYHSRALQVVRARKQIVAGVNYFLDVELGRTTCTKTQPNLDNCPFHDQPHLKRKAFCSFQIYAVPWQGTMTLSKSTCQDA
For B1, the “replication of murine coronavirus A59” value in [17] is given as “lack of inhibition”. For the same molecule, the “replication of human coronavirus” value in [19] is “inhibited replication”.
